In one assay the test system is A375 cells. Nature of the assay: Assay 1: A375 cells treated with S1152, S1008 and compound, immunofluorescence (sc-365823) signal. Type of assay: cell-based. Particulars: 1 μM S1152 + 0.5 μM S1008, one day. The method in brief: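 A375 cells treated one day with 1 μM S1152, 0.5 μM S1008 and compound dose ranges in DMEM/10% FCS, then fixed, permeabilised and immunostained. Green signal normalised to nuclear counterstain (ethidium-type or DAPI), log ratio fitted by four-parameter regression for EC50.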

A further assay deals with T1, CBP Bromodomain (Homo sapiens, UniProt Q92793).
T1 construct: purchased Cayman chemicals 600850
Nature of the assay: Assay 3: CBP bromodomain binding assay (TR-FRET). As for the experimental part:
Assay 3 CBP Bromodomain Binding Assay (TR-FRET)
Compounds solutions of 10 mM in DMSO were pre-diluted in DSMO to 25× stock solutions in DMSO. These were then diluted down to 4× in assay buffer. A dilution series in assay buffer was performed keeping the DMSO concentration stable. 5 μl compound in assay buffer was transferred into the assay plate (provided by assay kit) and the TR-FRET assay Cayman chemicals; 600850) was performed using the manufactor's instructions. After 1 hour incubation at room temperature in the darks, assay plates were read in a Tecan M1000 plate reader or a Tecan Spaks reader using the TR-FRET mode (top read; excitation 340 nm bandwidth […]; emission 620 nm bandwidth […]; gain optimal determined for the first well, number of flashes: 5; flash frequency 100 Hz; integration time: 500 μs, lag time: 100 μs, room temperature). The TR-FRET ratio was calculated by deviding 670 nm emission by 620 nm emission. Values were log transformed and non-linear regression with variable slope (4 parameters) was used to fit values to a dose-response curve to evaluate EC50 values.

Another assay deals with OPM-2. Nature of the assay: Assay 2: multiple myeloma cellular efficacy, PrestoBlue cell proliferation/survival. It counts as cell-based. The conditions noted are these: Homo sapiens, 96 h, OPM-2 cells, 4 days. In a few lines:
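Cells seeded at 10000/well and exposed to a compound dose range or vehicle for 4 days, then stained with PrestoBlue for 2 h at 37 °C. Fluorescence was background-subtracted and normalized to vehicle; EC50 came from a four-parameter variable-slope fit against log concentration.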

T1 sequence (Q92793 1085-1192 limits assumed): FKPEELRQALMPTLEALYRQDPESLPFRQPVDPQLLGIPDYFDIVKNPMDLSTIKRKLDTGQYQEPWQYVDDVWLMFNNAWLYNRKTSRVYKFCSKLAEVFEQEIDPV

Take `CC(=O)N1C[C@H](c2nc(Nc3ccncc3)cc(-c3cccnc3)n2)CC[C@@H]1C` (racemic) [Compound 00101, (+/−)-c/s-1-(2-methyl-5-(4-(pyridin-3-yl)-6-(pyridin-4-ylamino)pyrimidin-2-yl)piperidin-1-yl)ethan-1-one]: the EC50 in the assay with A375 cells and at CBP Bromodomain was 200 to 1000 nM throughout. With `CC(=O)N1C[C@H](c2nc(Nc3cncc(C)c3)cc(-c3cnccn3)n2)CC[C@@H]1C` [Compound 00001, 1-((2S,5R)-2-methyl-5-(4-((5-methylpyridin-3-yl)amino)-6-(pyrazin-2-yl)pyrimidin-2-yl)piperidin-1-yl)ethan-1-one], the EC50 in the assay on A375 cells and at CBP Bromodomain was less than 200 nM in each case.

Turning to `CC(=O)N1C[C@H](c2nc(Nc3ccc4nccn4c3)cc(-c3cccnc3)n2)CC[C@@H]1C` [Compound 00013, 1-((2S,5R)-5-(4-(imidazo[1,2-a]pyridin-6-ylamino)-6-(pyridin-3-yl)pyrimidin-2-yl)-2-methylpiperidin-1-yl)ethan-1-one], the EC50 (as a rule, the concentration giving half of the maximal effect) with A375 cells lay within 1000 to 10000 nM; at CBP Bromodomain, 200 to 1000 nM. In the case of `CC(=O)N1C[C@H](c2nc(Nc3ccnc(C)c3)cc(-c3cnccn3)n2)CC[C@@H]1C` [Compound 00126, 1-((2S,5R)-2-methyl-5-(4-((2-methylpyridin-4-yl)amino)-6-(pyrazin-2-yl)pyrimidin-2-yl)piperidin-1-yl)ethan-1-one], on CBP Bromodomain, the EC50 is less than 200 nM. Take `CC(=O)N1C[C@H](c2nc(Nc3cc(C)nc(C(F)F)c3)cc(-c3cnccn3)n2)CC[C@@H]1C` [Compound 00145, 1-((2S,5R)-5-(4-((2-(difluoromethyl)-6-methylpyridin-4-yl)amino)-6-(pyrazin-2-yl)pyrimidin-2-yl)-2-methylpiperidin-1-yl)ethan-1-one]: the EC50 in the assay with A375 cells and in the assay on OPM-2 was less than 200 nM each time. Consider `CC(=O)N1C[C@H](c2nc(Nc3ccnc(C(C)(F)F)c3)cc(-c3cccnc3)n2)CC[C@@H]1C` [Compound 00146, 1-((2S,5R)-5-(4-((2-(1,1-difluoroethyl)pyridin-4-yl)amino)-6-(pyridin-3-yl)pyrimidin-2-yl)-2-methylpiperidin-1-yl)ethan-1-one], for which the results for the EC50 with A375 cells and in the assay on OPM-2 were less than 200 nM and 200 to 1000 nM, respectively. The matching figures for `CC(=O)N1C[C@H](c2nc(Nc3ccc4oc(C)nc4c3)cc(-c3cccnc3)n2)CC[C@@H]1C` [Compound 00147, 1-((2S,5R)-2-methyl-5-(4-((2-methylbenzo[d]oxazol-5-yl)amino)-6-(pyridin-3-yl)pyrimidin-2-yl)piperidin-1-yl)ethan-1-one]: less than 200 nM and less than 200 nM. Take `CC(=O)Nc1cccc(Nc2cc(-c3cccnc3)nc([C@@H]3CC[C@H](C)N(C(C)=O)C3)n2)n1` [Compound 00148, N-(6-((2-((3R,6S)-1-acetyl-6-methylpiperidin-3-yl)-6-(pyridin-3-yl)pyrimidin-4-yl)amino)pyridin-2-yl)acetamide]: the EC50 in the assay on A375 cells and in the assay on OPM-2 was less than 200 nM in each case. For `COc1cc(Nc2cc(-c3cnccn3)nc([C@@H]3CC[C@H](C)N(C(C)=O)C3)n2)cc(C)n1` [Compound 00150, 1-((2S,5R)-5-(4-((2-methoxy-6-methylpyridin-4-yl)amino)-6-(pyrazin-2-yl)pyrimidin-2-yl)-2-methylpiperidin-1-yl)ethan-1-one], the EC50 in the assay with A375 cells and with OPM-2 was less than 200 nM in each case. In the case of `CC(=O)N1C[C@H](c2nc(Nc3cc(C)ncn3)cc(-c3cnccn3)n2)CC[C@@H]1C` [Compound 00151, 1-((2S,5R)-2-methyl-5-(4-((6-methylpyrimidin-4-yl)amino)-6-(pyrazin-2-yl)pyrimidin-2-yl)piperidin-1-yl)ethan-1-one], the EC50 in the assay on A375 cells and in the assay with OPM-2 was 200 to 1000 nM each time. For the molecule `CC(=O)N1C[C@H](c2nc(Nc3cc(C)nc(-c4cnn(C)c4)c3)cc(-c3cnccn3)n2)CC[C@@H]1C` [Compound 00154, 1-((2S,5R)-2-methyl-5-(4-((2-methyl-6-(1-methyl-1H-pyrazol-4-yl)pyridin-4-yl)amino)-6-(pyrazin2-yl)pyrimidin-2-yl)piperidin-1-yl)ethan-1-one], the EC50 in the assay with A375 cells is less than 200 nM; in the assay with OPM-2, 200 to 1000 nM.

On to `CC(=O)N1C[C@H](c2nc(Nc3ccnc(OC(C)C)c3)cc(-c3cnccn3)n2)CC[C@@H]1C` [Compound 00155, 1-((2S,5R)-5-(4-((2-isopropoxypyridin-4-yl)amino)-6-(pyrazin-2-yl)pyrimidin-2-yl)-2-methylpiperidin-1-yl)ethan-1-one], for which the EC50 in the assay on A375 cells and with OPM-2 was 200 to 1000 nM each time.

Consider `CC(=O)N1C[C@H](c2nc(Nc3cc(F)ccn3)cc(-c3cnccn3)n2)CC[C@@H]1C` [Compound 00156, 1-((2S,5R)-5-(4-((4-fluoropyridin-2-yl)amino)-6-(pyrazin2-yl)pyrimidin-2-yl)-2-methylpiperidin-1-yl)ethan-1-one], for which the EC50 in the assay with A375 cells and with OPM-2 was 200 to 1000 nM each time.

Regarding `CC(=O)N1C[C@H](c2nc(Nc3ccnc(-c4cnn(C5CC5)c4)c3)cc(-c3cccnc3)n2)CC[C@@H]1C` [Compound 00157, 1-((2S,5R)-5-(4-((2-(1-cyclopropyl-1H-pyrazol-4-yl)pyridin-4-yl)amino)-6-(pyridin-3-yl)pyrimidin-2-yl)-2-methylpiperidin-1-yl)ethan-1-one], the EC50 with A375 cells and in the assay on OPM-2 was less than 200 nM throughout.

Take `CCn1cc(-c2cc(Nc3cc(-c4cccnc4)nc([C@@H]4CC[C@H](C)N(C(C)=O)C4)n3)ccn2)cn1` [Compound 00158, 1-((2S-5R)-5-(4-((2-(1-ethyl-1H-pyrazol-4-yl)pyridin-4-yl)amino)-6-(pyridin-3-yl)pyrimidin-2-yl)-2-methylpiperidin-1-yl)ethan-1-one]: the EC50 with A375 cells and in the assay on OPM-2 was less than 200 nM throughout.

On to `CC(=O)N1C[C@H](c2nc(Nc3ccnc(-c4cnn(C5CCOCC5)c4)c3)cc(-c3cccnc3)n2)CC[C@@H]1C` [Compound 00159, 1-((2S-5R)-2-methyl-5-(4-(pyridin-3-yl)-6-((2-(1-(tetrahydro-2H-pyran-4-yl)-1H-pyrazol-4-yl)pyridin-4-yl)amino)pyrimidin-2-yl)piperidin-1-yl)ethan-1-one], for which the EC50 in the assay with A375 cells and in the assay on OPM-2 was less than 200 nM throughout. Turning to `COCCn1cc(-c2cc(Nc3cc(-c4cccnc4)nc([C@@H]4CC[C@H](C)N(C(C)=O)C4)n3)ccn2)cn1` [Compound 00160, 1-((2S,5R)-5-(4-((2-(1-(2-methoxyethyl)-1H-pyrazol-4-yl)pyridin-4-yl)amino)-6-(pyridin-3-yl)pyrimidin-2-yl)-2-methylpiperidin-1-yl)ethan-1-one], the EC50 in the assay on A375 cells and in the assay with OPM-2 was 200 to 1000 nM throughout. In the case of `CC(=O)N1C[C@H](c2nc(Nc3cc(C)nc(-c4cnn(C)c4)c3)cc(-c3cccnc3)n2)CC[C@@H]1C` [Compound 00161, 1-((2S,5R)-2-methyl-5-(4-((2-methyl-6-(1-methyl-1H-pyrazol-4-yl)pyridin-4-yl)amino)-6-(pyridin-3-yl)pyrimidin-2-yl)piperidin-1-yl)ethan-1-one], the EC50 in the assay on A375 cells and in the assay on OPM-2 was less than 200 nM each time. `CC(=O)N1C[C@H](c2nc(-c3cnccn3)cc(N(C)c3ccnc(C)c3)n2)CC[C@@H]1C` [Compound 00167, 1-((2S,5R)-2-methyl-5-(4-(methyl(2-methylpyridin-4-yl)amino)-6-(pyrazin-2-yl)pyrimidin-2-yl)piperidin-1-yl)ethan-1-one]: the figures for the concentration for a half-maximal effect (EC50) in the assay with A375 cells and in the assay with OPM-2 were 200 to 1000 nM and 1000 to 10000 nM, respectively.

The values above are taken from patent publication US12478624B2, “Heterocyclic derivatives, pharmaceutical compositions and their use in the treatment or amelioration of cancer” (Tolremo Therapeutics AG, priority 2019, dated 2025).
